From US11667602B2, “Compounds and their use” (AstraZeneca AB, priority 2020, dated 2023)
In brackets after ≈: the same amount, converted by molar mass.

Assays:
[1] = Human Liver Microsomal Stability (Test C); assay type: in vitro ADME; conditions: human, liver microsomes
Summary of the method: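 CLint (μl/min/mg protein) derived from compound depletion in human liver microsomes following a published standardized early-DMPK protocol; replicate determinations given as arithmetic mean.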

Solubility (Test F) = assay type: physicochemical; conditions: arithmetic mean if run multiple times
Protocol: The assay was conducted according to the Solubility Assay described in pages 164-167 of Wernevik, J. et al., “A Fully Integrated Assay Panel for Early Drug Metabolism and Pharmacokinetics Profiling”, Assay and Drug Development Technologies, 2020, 18(4), 157-179. Data are reported in Table 36 as solubility ([…]. Where the assay was run multiple times for the same compound, the arithmetic mean is reported.

[2] = Rat Hepatocyte Stability (Test E); assay type: in vitro ADME; conditions: rat, hepatocytes, geometric mean if run multiple times
Summary of the method: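 Intrinsic clearance in rat hepatocytes, expressed as μl/min/10^6 cells, following the literature integrated DMPK panel method. Repeat determinations combined as geometric mean.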

human RXFP1 = target: T1, human RXFP1 (Homo sapiens, UniProt Q9HBX9); assay: RXFP1 Hu cAMP (Test A); assay type: cell-based; parameters: expressed in transfected cells; host or cells: Jump-In T-REx CHO-K1 cells (ThermoFisher), induced with 10 ng/ml doxycycline for 24 h; conditions: RXFP1 Hu cAMP; for EC50: read-out: Test A EC50
T1 sequence (Q9HBX9 1-757): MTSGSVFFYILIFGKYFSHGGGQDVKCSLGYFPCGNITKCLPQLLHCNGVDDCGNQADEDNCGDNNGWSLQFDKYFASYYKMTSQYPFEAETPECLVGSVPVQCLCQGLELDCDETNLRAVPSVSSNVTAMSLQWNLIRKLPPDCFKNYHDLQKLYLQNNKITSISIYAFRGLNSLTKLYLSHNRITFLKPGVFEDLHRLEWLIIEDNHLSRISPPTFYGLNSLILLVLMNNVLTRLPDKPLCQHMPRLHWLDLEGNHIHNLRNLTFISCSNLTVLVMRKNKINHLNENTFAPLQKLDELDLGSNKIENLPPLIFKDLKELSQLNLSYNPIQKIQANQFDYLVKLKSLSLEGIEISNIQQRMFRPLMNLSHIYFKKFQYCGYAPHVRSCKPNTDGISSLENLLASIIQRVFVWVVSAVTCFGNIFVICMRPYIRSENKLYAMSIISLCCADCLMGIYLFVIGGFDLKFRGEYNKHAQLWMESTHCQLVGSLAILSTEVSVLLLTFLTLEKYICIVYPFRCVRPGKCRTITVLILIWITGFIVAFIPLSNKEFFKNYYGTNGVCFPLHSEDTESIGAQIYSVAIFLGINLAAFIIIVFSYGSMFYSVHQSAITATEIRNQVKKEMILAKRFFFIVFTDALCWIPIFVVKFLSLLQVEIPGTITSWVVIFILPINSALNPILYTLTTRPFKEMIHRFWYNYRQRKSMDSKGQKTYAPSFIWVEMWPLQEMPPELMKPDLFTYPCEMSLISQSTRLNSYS
Summary of the method: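 Cells: CHO-K1 stably carrying human RXFP1, expressed after 24 h 10 ng/ml doxycycline; 0.5 mM IBMX final, HTRF detection after 2 h at room temperature.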

[3] = Human Plasma Protein Binding (Test B); assay type: in vitro ADME; conditions: fraction unbound (fu)
Summary of the method: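 Values given as % free (fu) in human plasma, using the method of Wernevik et al. (2020). For compounds tested more than once, the arithmetic mean is given.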

SMILES | microsomal CLint [1] [µL/min/mg] | solubility (Solubility (Test F)) [µM] | hepatocyte CLint [2] [µL/min/1e6 cells] | Test A Sinf (human RXFP1) [%] | EC50 (human RXFP1) [µM] | Test B Human Plasma Protein Binding (% free) [3] [% free]
COc1cc(C#N)c(O[C@H]2CC[C@@](C)(C(=O)O)CC2)cc1C(=O)N[C@@H]1[C@H]2CC[C@H](C2)[C@@H]1C(=O)NCC1CCCCCC1 [Example 82] | 54 | 330 (≈ 191 µg/mL) | 41 | 114 | 0.032 | 2.5
COc1cc(C#N)c(O[C@H]2CC[C@@](C)(C(=O)O)CC2)cc1C(=O)N[C@@H]1[C@H]2CC[C@H](C2)[C@@H]1C(=O)NC12CC3C[C@H](C1)C[C@H](C3)C2 [Example 81] | 97 | 250 (≈ 151 µg/mL) | 57 | 111 | 0.031 | 2.7
COc1cc(C#N)c(O[C@H]2CC[C@@](C)(C(=O)O)CC2)cc1C(=O)N[C@@H]1[C@H]2CC[C@H](C2)[C@@H]1C(=O)N[C@]12CC3CC(C[C@@](O)(C3)C1)C2 [Example 113] | 11 | 950 (≈ 589 µg/mL) | 30 | – | > 9.4 | 28
COc1cc(C#N)c(O[C@H]2CC[C@@](C)(C(=O)O)CC2)cc1C(=O)N[C@@H]1[C@H]2CC[C@H](C2)[C@@H]1C(=O)NC1(C)CC1 [Example 100] | < 3 | 920 (≈ 482 µg/mL) | 9.6 | 100 | > 4.6 | 30
COc1cc(F)c(O[C@H]2CC[C@@H](C(=O)O)CC2)cc1C(=O)N[C@@H]1[C@H]2CC[C@H](C2)[C@@H]1C(=O)Nc1nccc(C(F)(F)F)n1 [Example 32] | 10 | > 1000 | 26 | 100 | > 40 | 13
COc1cc(F)c(O[C@H]2CC[C@@H](C(=O)O)CC2)cc1C(=O)N[C@@H]1[C@H]2CC[C@H](C2)[C@@H]1C(=O)NC1CCCCC1 [Example 9, (1S,4s)-4-(5-(((1S,2R,3S,4R)-3-(Cyclohexylcarbamoyl)bicyclo[2.2.1]heptan-2-yl)carbamoyl)-2-fluoro-4-methoxyphenoxy)cyclohexane-1-carboxylic acid] | 9.2 | 27 (≈ 14.3 µg/mL) | 67 | 100 | > 7.3 | 11
COc1cc(F)c(O[C@H]2CC[C@@](C)(C(=O)O)CC2)cc1C(=O)Nc1c(C)cc(C)cc1C(=O)NCC1(C)CCC1 [Example 211, (1s,4s)-4-(5-((2,4-Dimethyl-6-(((1-methylcyclobutyl)methyl)carbamoyl)phenyl)carbamoyl)-2-fluoro-4-methoxyphenoxy)-1-methylcyclohexane-1-carboxylic acid] | 5.2 | 29 (≈ 16.1 µg/mL) | 12 | 100 | > 9.3 | 1.4
COc1cc(F)c(O[C@H]2CC[C@@H](C(=O)O)CC2)cc1C(=O)N[C@@H]1[C@H](C(=O)Nc2ccc(F)c(C(F)(F)F)c2)[C@@H]2CC[C@H]1O2 [Example 50, (1S,4s)-4-(2-Fluoro-5-(((1R,2R,3S,4S)-3-((4-fluoro-3-(trifluoromethyl)phenyl)carbamoyl)-7-oxabicyclo[2.2.1]heptan-2-yl)carbamoyl)-4-methoxyphenoxy)cyclohexane-1-carboxylic acid] | < 3 | 60 (≈ 36.8 µg/mL) | < 1 | – | > 50 | 1.9
COc1cc(F)c(O[C@H]2CC[C@@H](C(=O)O)CC2)cc1C(=O)N[C@@H]1[C@H]2CC[C@H](C2)[C@@H]1C(=O)Nc1ccc(Br)c(C(F)(F)F)c1 [Example 23] | 26 | 8.7 (≈ 5.84 µg/mL) | 19 | 109 | 0.02 | 0.24

The next lines start with the values.

microsomal CLint [1] [µL/min/mg] | solubility (Solubility (Test F)) [µM] | hepatocyte CLint [2] [µL/min/1e6 cells] | Test A Sinf (human RXFP1) [%] | EC50 (human RXFP1) [µM] | Test B Human Plasma Protein Binding (% free) [3] [% free] | SMILES
40 | 290 (≈ 164 µg/mL) | 79 | 103 | 0.22 | 1.7 | COc1cc(F)c(O[C@H]2CC[C@@H](C(=O)O)CC2)cc1C(=O)N[C@@H]1[C@H]2CC[C@H](C2)[C@@H]1C(=O)Nc1cccc(C(C)C)c1 [Example 196, (1S,4s)-4-(2-Fluoro-5-(((1S,2R,3S,4R)-3-((3-isopropylphenyl)carbamoyl)bicyclo[2.2.1]heptan-2-yl)carbamoyl)-4-methoxyphenoxy)cyclohexane-1-carboxylic acid]
8.4 | 920 (≈ 524 µg/mL) | 32 | 122 | 0.14 | 12 | COc1cc(C#N)c(O[C@H]2CC[C@@](C)(C(=O)O)CC2)cc1C(=O)N[C@@H]1[C@H]2CC[C@H](C2)[C@@H]1C(=O)NCC1(F)CCCC1 [Example 92]
61 | 760 (≈ 490 µg/mL) | 22 | 101 | > 0.23 | 3 | O=C(N[C@@H]1[C@H]2CC[C@H](C2)[C@@H]1C(=O)Nc1cccc(S(=O)(=O)C(F)(F)F)c1)c1cc(O[C@H]2CC[C@@H](C(=O)O)CC2)c(F)cc1F [Example 430]
21 | 120 (≈ 72.8 µg/mL) | 43 | 109 | 0.035 | 0.67 | COc1cc(F)c(O[C@H]2CC[C@@H](C(=O)O)CC2)cc1C(=O)N[C@@H]1[C@H]2CC[C@H](C2)[C@@H]1C(=O)Nc1ccc(C)c(C(F)(F)F)c1 [Example 192, (1S,4s)-4-(2-Fluoro-4-methoxy-5-(((1S,2R,3S,4R)-3-((4-methyl-3-(trifluoromethyl)phenyl)carbamoyl)bicyclo[2.2.1]heptan-2-yl)carbamoyl)phenoxy)cyclohexane-1-carboxylic acid]
< 3 | 920 (≈ 522 µg/mL) | 10 | – | > 5 | 26 | COc1cc(C#N)c(O[C@H]2CC[C@@](C)(C(=O)O)CC2)cc1C(=O)N[C@@H]1[C@H]2CC[C@H](C2)[C@@H]1C(=O)NCC1(O)CCCC1 [Example 74]
< 3 | 990 (≈ 612 µg/mL) | 28 | 100 | > 3.5 | 20 | COc1cc(C#N)c(O[C@H]2CC[C@@](C)(C(=O)O)CC2)cc1C(=O)N[C@@H]1[C@H]2CC[C@H](C2)[C@@H]1C(=O)NCC1(O)CCC(F)(F)CC1 [Example 101]
39 | 850 (≈ 533 µg/mL) | 28 | 110 | – | 0.55 | COc1cc(F)c(O[C@H]2CC[C@@H](C(=O)O)CC2)cc1C(=O)N[C@@H]1[C@H]2CC[C@H](C2)[C@@H]1C(=O)Nc1ccc(F)c(OC(F)(F)F)c1 [Example 21]
300 | 2 (≈ 1.41 µg/mL) | 47 | 103 | 0.37 | 0.32 | COc1cc(F)c(O[C@H]2CC[C@H](NS(C)(=O)=O)CC2)cc1C(=O)N[C@@H]1[C@H]2CC[C@H](C2)[C@@H]1C(=O)Nc1cccc(S(=O)(=O)C(F)(F)F)c1 [Example 460, (1R,2S,3R,4S)-3-(4-fluoro-2-methoxy-5-(((1r,4R)-4-(methylsulfonamido)cyclohexyl)oxy)benzamido)-N-(3-((trifluoromethyl)sulfonyl)phenyl)bicyclo[2.2.1]heptane-2-carboxamide]
